Results from patent publication US8772446B2, “Bifunctional chelating agents” (Nordion (Canada) Inc., priority 2010, dated 2014).
Read-outs that look alike come from different tables or passages of the source. One block for each compound: values may come before it.

Assays:
human apo-transferrin [1] = target: T1, human apo-transferrin (Homo sapiens, UniProt P02787); details: 40 µM
Method: (§1) FIG. 13 illustrates stacked labelling traces of ^67Ga(dedpa)^+ of 2 h stability experiment against apo-transferrin (gradient: A: NaOAc buffer, pH 4.5, B: MeOH. 0-100% B linear gradient 20 min).

human apo-transferrin [2] = target: T1, human apo-transferrin; assay: ^67Ga complex stability: 2-h competition with excess human apo-transferrin, HPLC; details: for Stability in competition with excess human apo-transferrin, 10 min / Stability in competition with excess human apo-transferrin, 1 h / Stability in competition with excess human apo-transferrin, 2 h: ^67Ga complex, 37° C
Method: as §1

[3] = Solution thermodynamics: formation constants (log KML) and pM of Ga(III) complexes, potentiometric titration; assay type: physicochemical; details: Calculated for 10 μM total ligand and 1 μM total metal at pH 7.4 and 25° C
Method: A more relevant indicator of the extent to which a metal complex is formed in solution is given by pM (−log free M) which considers the influence of ligand basicity and chelate hydrolysis.
Carbonate-free solutions of the titrant, NaOH, were prepared by dilution of 50% solution (Acros Organics) with freshly boiled MQ water under a stream of purified nitrogen gas. The solution was standardized with potassium acid phthalate and the extent of carbonate accumulation was periodically checked by titration with a standard hydrochloric acid solution and determination of the corresponding Gran titration plot.^47 Gallium ion solutions were prepared by dilution of the appropriate atomic absorption (AA) standard. The exact amount of acid present in the gallium standard was determined by titration of an equimolar solution of Ga and Na2H2EDTA. The amount of acid present was determined by Gran's method.^47
Data were collected in triplicate using PC Control (Version 6.0.91, Metrohm). The titration apparatus consisted of a 10 mL water jacketed glass vessel maintained at 25.0±0.1° C. (Julabo waterbath). Prior to and during the course of the titration, a blanket of nitrogen, passed through 10% NaOH to exclude any CO2, was maintained over the sample solution. The ionic strength was maintained at 0.16 M using NaCl. Prior to each potentiometric equilibrium study, the electrode was calibrated using standard HCl solutions. Calibration data were analysed by standard computer treatment provided within the program MacCalib to obtain the calibration parameters E0 and pKw.
As the degree of formation of Ga(III) complexes at low pH (<2) was too high for the determination of stability constants by use of direct potentiometry, the ligand-ligand competition method using Na2H2EDTA was also performed.

[4] = Ga(III) complex, cited from earlier work; for log KML: literature value
log P = assay type: physicochemical
human apo-transferrin [5] = target: T1, human apo-transferrin; assay: ^111In-chelate stability: binding competition with human apo-transferrin at ambient temperature, PD-10 columns; assay type: in vitro ADME; design: Human serum apo-transferrin was purchased from Sigma-Aldrich; purchased Sigma-Aldrich; host or cells: human serum
Method: Human apo-transferrin (Aldrich) was suspended in 10 mM NaHCO3 buffer at pH 6.9. Labeling solutions were prepared with chelators and ^111In in 10 mM NaHCO3 buffer at pH 5.5, and allowed to sit for 20-30 minutes. Quantitative formation of ^111In-chelate complexes was confirmed by HPLC (same methods as in Example 2). ^111In(DOTA) was formed using a microwave reactor (Biotage) at 80° C. for 10 minutes to ensure quantitative labeling. Competition experiments for all 8 chelators studied (Table 3) were performed with preformed ^111In-chelate complexes at a concentration of 36.5 mM, and with human apo-transferrin at a concentration of ˜10 mM. Samples were left to sit in sterile scintillation vials for 1 hour and 24 hours at ambient temperature. Chelate stability was determined using size-exclusion ‘desalting’ columns (GE Healthcare PD-10 pre-packed columns, Sephadex G-25 M). All compounds smaller than ˜5000 Daltons were retained by the PD-10 columns, and all transferrin was eluted. PD-10 columns were conditioned by discarding the contained bactericidal solution and eluting 20 mL of phosphate buffered saline (PBS, purchased from BioWhittaker). For analysis, the competition experiment solutions were diluted to 2.5 mL with PBS, measured with a Capintec scintillation counter, loaded onto PD-10 columns, and allowed to elute into a waste container fully. An additional 3.5 mL of PBS was then loaded onto the columns and collected into a sterile scintillation vial. PD-10 columns were discarded after a single use. The vial containing the eluent was then measured with a Capintec scintillation counter to determine the amount of ^111In bound to transferrin. The difference in radioactivity between the competition experiment solutions and the eluent from the PD-10 columns was used to determine the percent ^111In bound to transferrin, and therefore the percent stability of the complexes.

T1 sequence (P02787 20-698): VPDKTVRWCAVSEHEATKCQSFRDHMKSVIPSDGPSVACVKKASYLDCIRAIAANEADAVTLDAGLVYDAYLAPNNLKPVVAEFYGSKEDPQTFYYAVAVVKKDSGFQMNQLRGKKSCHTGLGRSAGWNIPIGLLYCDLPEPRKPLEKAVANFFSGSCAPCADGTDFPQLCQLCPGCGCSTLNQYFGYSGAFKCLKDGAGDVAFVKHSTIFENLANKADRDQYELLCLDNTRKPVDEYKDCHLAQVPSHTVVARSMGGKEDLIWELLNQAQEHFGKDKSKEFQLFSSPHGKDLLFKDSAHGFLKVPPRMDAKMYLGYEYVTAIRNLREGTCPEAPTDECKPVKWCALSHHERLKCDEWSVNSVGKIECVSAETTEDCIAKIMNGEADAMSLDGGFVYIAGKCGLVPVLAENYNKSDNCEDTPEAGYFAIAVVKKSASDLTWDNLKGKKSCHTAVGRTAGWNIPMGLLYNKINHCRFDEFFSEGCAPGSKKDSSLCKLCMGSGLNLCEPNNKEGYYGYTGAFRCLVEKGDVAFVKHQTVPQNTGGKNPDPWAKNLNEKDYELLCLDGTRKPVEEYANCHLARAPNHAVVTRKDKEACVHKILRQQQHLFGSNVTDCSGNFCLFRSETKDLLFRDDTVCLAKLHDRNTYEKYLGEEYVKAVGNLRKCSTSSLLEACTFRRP

Compound: O=C(O)c1cccc(CN(CCN(Cc2ccc([N+](=O)[O-])cc2)Cc2cccc(C(=O)O)n2)Cc2ccc([N+](=O)[O-])cc2)n1 [Compound 66]
Stability in competition with excess human apo-transferrin, 10 min (human apo-transferrin [1]; 10 min): 88%
Stability in competition with excess human apo-transferrin, 1 h (human apo-transferrin [1]; 1 h): 69%
Stability in competition with excess human apo-transferrin, 2 h (human apo-transferrin [1]; 2 h): 51%

Compound: O=C(O)c1cccc(CNCCNCc2cccc(C(=O)O)n2)n1 [Compound H2dedpa]
Extraction of gallium from transferrin (in words) (human apo-transferrin [2]; challenge experiment): capable of extracting gallium from transferrin
pM [3]: 27.4

pM [3]: 18.5
Compound: O=C(O)CN1CCN(CC(=O)O)CCN(CC(=O)O)CCN(CC(=O)O)CC1 [DOTA, 1,4,7,10-tetraazacyclododecane-1,4,7,10-tetraacetic acid, reference compound]
log KML [4]: 21.33

pM [3]: 18.3
Compound: O=C(O)CN(CCN(CC(=O)O)CC(=O)O)CC(=O)O [EDTA, reference compound]
log KML [4]: 21.7

Stability in competition with excess human apo-transferrin, 10 min (human apo-transferrin [2]): 76%
Stability in competition with excess human apo-transferrin, 1 h (human apo-transferrin [2]): 59%
Stability in competition with excess human apo-transferrin, 2 h (human apo-transferrin [2]): 52%
log P (log P): −0.32
Compound: COc1cc(CN(CCN(Cc2cc(OC)cc(OC)c2)Cc2cccc(C(=O)[O-])n2)Cc2cccc(C(=O)[O-])n2)cc(OC)c1.O=[N+]([O-])[O-].[Ga+3] [Ga(88)NO3]

Stability in competition with excess human apo-transferrin, 10 min (human apo-transferrin [2]): 86%
Stability in competition with excess human apo-transferrin, 1 h (human apo-transferrin [2]): 85%
Stability in competition with excess human apo-transferrin, 2 h (human apo-transferrin [2]): 82%
log P (log P): −0.03
Compound: COc1cc(OC)c(CN(CCN(Cc2cccc(C(=O)[O-])n2)Cc2c(OC)cc(OC)cc2OC)Cc2cccc(C(=O)[O-])n2)c(OC)c1.O=[N+]([O-])[O-].[Ga+3] [Ga(91a)NO3]

Stability in competition with excess human apo-transferrin, 10 min (human apo-transferrin [2]): 97%
Stability in competition with excess human apo-transferrin, 1 h (human apo-transferrin [2]): 96%
Stability in competition with excess human apo-transferrin, 2 h (human apo-transferrin [2]): 96%
log P (log P): 0.66
Compound: COc1cc(CN(CCN(Cc2cc(OC)cc(C(=O)[O-])n2)Cc2c(OC)cc(OC)cc2OC)Cc2c(OC)cc(OC)cc2OC)nc(C(=O)[O-])c1.O=[N+]([O-])[O-].[Ga+3] [Ga(91b)NO3]

Stability in competition with excess human apo-transferrin, 10 min (human apo-transferrin [2]): 95%
Stability in competition with excess human apo-transferrin, 1 h (human apo-transferrin [2]): 92%
Stability in competition with excess human apo-transferrin, 2 h (human apo-transferrin [2]): 91%
Compound: CCOc1cc(OCC)c(CN(CCN(Cc2cccc(C(=O)[O-])n2)Cc2c(OCC)cc(OCC)cc2OCC)Cc2cccc(C(=O)[O-])n2)c(OCC)c1.O=[N+]([O-])[O-].[Ga+3] [Ga(99a)NO3]

Stability in competition with excess human apo-transferrin, 10 min (human apo-transferrin [2]): 94%
Stability in competition with excess human apo-transferrin, 1 h (human apo-transferrin [2]): 93%
Stability in competition with excess human apo-transferrin, 2 h (human apo-transferrin [2]): 93%
log P (log P): 1.16
Compound: CCOc1cc(OCC)c(CN(CCN(Cc2cc(OC)cc(C(=O)[O-])n2)Cc2c(OCC)cc(OCC)cc2OCC)Cc2cc(OC)cc(C(=O)[O-])n2)c(OCC)c1.O=[N+]([O-])[O-].[Ga+3] [Ga(99b)NO3]

pM [3]: 27.9
Compound: O=C(O)CN1CCN(CC(=O)O)CCN(CC(=O)O)CC1 [NOTA, 1,4,7-triazacyclononane-1,4,7-triacetic acid, reference compound]
log KML [4]: 30.98

Compound: O=C(O)c1cccc(CNCCNCc2cccc(C(=O)O)n2)n1 [^111In(1), metal not drawn]
% ^111In-chelate stability at 1 hour (human apo-transferrin [5]): 98%
% ^111In-chelate stability, 24 hour stability (human apo-transferrin [5]): 43%

% ^111In-chelate stability at 1 hour (human apo-transferrin [5]): 90%
% ^111In-chelate stability, 24 hour stability (human apo-transferrin [5]): 91%
Compound: O=C(O)CN(CCN(CC(=O)O)Cc1cccc(C(=O)O)n1)Cc1cccc(C(=O)O)n1 [^111In(2), metal not drawn]

% ^111In-chelate stability at 1 hour (human apo-transferrin [5]): 91%
% ^111In-chelate stability, 24 hour stability (human apo-transferrin [5]): 85%
Compound: O=C(O)c1cccc(CNCCCNCc2cccc(C(=O)O)n2)n1 [^111In(3), metal not drawn]

% ^111In-chelate stability at 1 hour (human apo-transferrin [5]): 93%
% ^111In-chelate stability, 24 hour stability (human apo-transferrin [5]): 91%
Compound: O=C(O)CN(CCCN(CC(=O)O)Cc1cccc(C(=O)O)n1)Cc1cccc(C(=O)O)n1 [^111In(4), metal not drawn]

% ^111In-chelate stability, 24 hour stability (human apo-transferrin [5]): 88%
Compound: O=C(O)c1cccc(CNCCN(CCNCc2cccc(C(=O)O)n2)Cc2cccc(C(=O)O)n2)n1 [^111In(5), metal not drawn]

% ^111In-chelate stability at 1 hour (human apo-transferrin [5]): 89%
% ^111In-chelate stability, 24 hour stability (human apo-transferrin [5]): 91%
Compound: O=C(O)CN(CCN(CC(=O)O)Cc1cccc(C(=O)O)n1)CCN(CC(=O)O)Cc1cccc(C(=O)O)n1 [^111In(6), metal not drawn]

% ^111In-chelate stability, 24 hour stability (human apo-transferrin [5]): 81%
Compound: O=C([O-])CN1CCN(CC(=O)[O-])CCN(CC(=O)[O-])CCN(CC(=O)[O-])CC1.[111In+3] [^111In(DOTA), reference compound]

% ^111In-chelate stability at 1 hour (human apo-transferrin [5]): 86%
% ^111In-chelate stability, 24 hour stability (human apo-transferrin [5]): 88%
Compound: O=C([O-])CN(CCN(CC(=O)[O-])CC(=O)[O-])CCN(CC(=O)[O-])CC(=O)[O-].[111In+3] [^111In(DTPA), reference compound]

Compound: Transferrin: iron transport protein found in high concentrations in the blood that has an affinity for Ga
log KML (conditional constant) ([4]; conditional constant from reference): 20.3
pM [3]: 21.3
